This passage reports electrical conductivity results from the NIST ThermoML archive (doi:10.1021/acs.jced.6b00862).

This series can be described thus: wn = mass fraction of the nth substance listed. The conditions noted are these: 298 K, 100 kPa, Liquid, Alternating current cell with electrodes.

± gives the expanded uncertainty stated by the source.

For the compound `OCCNCCO` [diethanolamine] + O, the electrical conductivity is, setting by setting: (w1 = 0.0105) 0.0194 ± 0.00039 S/m; (w1 = 0.021) 0.0262 ± 0.00052 S/m; (w1 = 0.0315) 0.0318 ± 0.00064 S/m; (w1 = 0.0419) 0.0346 ± 0.00069 S/m; (w1 = 0.0523) 0.0373 ± 0.00075 S/m.
